The record followed here is PubChem BioAssay (NCI).

Test systems include CCRF-CEM leukemia; CAKI-1 renal; MDA-MB-435; SR leukemia; NCI-H522 lung; NCI-H460 lung; OVCAR-4 ovarian; SF-539 CNS; NCI-H23 lung; IGROV1 ovarian; OVCAR-3 ovarian; MDA-MB-231 breast; 786-0 renal; DU-145 prostate; T-47D breast; SW-620 colon; TK-10 renal; NCI/ADR-RES ovarian; OVCAR-5 ovarian.
Assay in all cases: DTP human tumour cell line panel, 48 h

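Protocol summary: plate cells (96-well), add compound at 5 concentrations, incubate 48 h, interpolate endpoints linearly. TGI marks complete inhibition of growth.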

In the case of `CCOC(=O)c1c(N2CCOCC2)[nH]c(=O)c(C(c2c(Cl)cccc2Cl)c2c(O)c(C(=O)OCC)c(N3CCOCC3)[nH]c2=O)c1O`, the TGI was 3.56 µM in the assay with CCRF-CEM leukemia; 5.24 µM in the assay on CAKI-1 renal; 12.1 µM with MDA-MB-435; 15.9 µM with SR leukemia; 3.72 µM in the assay on NCI-H522 lung; 45.2 µM with NCI-H460 lung. Besides, the TGI was determined as 24.1 µM with OVCAR-4 ovarian; 11 µM in the assay with SF-539 CNS; 21.8 µM in the assay on NCI-H23 lung; 15 µM with IGROV1 ovarian; 12.1 µM with OVCAR-3 ovarian; 24.9 µM with MDA-MB-231 breast. Further, the total growth inhibition concentration (TGI) in the assay with 786-0 renal was 6.47 µM; in the assay with DU-145 prostate it was 24.6 µM; with T-47D breast it was 13.2 µM; in the assay with SW-620 colon, 3.11 µM; in the assay on TK-10 renal, 14.3 µM; in the assay on NCI/ADR-RES ovarian it was 33.8 µM. This compound showed a TGI in the assay with OVCAR-5 ovarian of 27.5 µM.

Regarding `Cc1ccc2c3c1O[C@H]1c4[nH]c5ccccc5c4C[C@@]4(O)[C@@H](C2)N(CC2CC2)CC[C@]314`, the total growth inhibition concentration (TGI) with CCRF-CEM leukemia amounted to 24.6 µM; in the assay with CAKI-1 renal, 30.4 µM; with MDA-MB-435 it was 26.8 µM; in the assay with SR leukemia, 46.8 µM; in the assay with NCI-H522 lung, 29.5 µM; with NCI-H460 lung, 30.5 µM. Also, the TGI in the assay with OVCAR-4 ovarian amounted to 17.8 µM; in the assay on SF-539 CNS, 31.6 µM; in the assay with NCI-H23 lung, 39.5 µM; in the assay with IGROV1 ovarian it was 32 µM; with OVCAR-3 ovarian it was 27.5 µM; in the assay with MDA-MB-231 breast, 35.6 µM. Besides, the total growth inhibition concentration (TGI) in the assay with 786-0 renal came to 27.1 µM; in the assay on DU-145 prostate it was 30.5 µM; in the assay with T-47D breast it was 36.6 µM; with SW-620 colon, 25.4 µM; with TK-10 renal, 31.7 µM; with NCI/ADR-RES ovarian it was 42.2 µM. Further, the total growth inhibition concentration (TGI) with OVCAR-5 ovarian came to 35.1 µM.

Take `COC1=C(OC)C(=O)C(Cc2c(C)nc3sccn23)=C(C)C1=O`: the total growth inhibition concentration (TGI) came out at 23.8 µM in the assay on CCRF-CEM leukemia; 34.9 µM with CAKI-1 renal; 28.6 µM in the assay with MDA-MB-435; 38.9 µM with SR leukemia; 54.9 µM with NCI-H522 lung; 61.5 µM with NCI-H460 lung. Also, the TGI with OVCAR-4 ovarian was 18.1 µM; in the assay with SF-539 CNS it was 31.2 µM; in the assay with NCI-H23 lung, 29.5 µM; in the assay with IGROV1 ovarian, 40.9 µM; in the assay with OVCAR-3 ovarian it was 34.3 µM; in the assay on MDA-MB-231 breast it was 32.9 µM. Also, the TGI in the assay on 786-0 renal is 43.2 µM; in the assay on DU-145 prostate, 38.6 µM; in the assay on T-47D breast, over 100 µM; in the assay on SW-620 colon it was 34.8 µM; with TK-10 renal it was 32 µM; in the assay on NCI/ADR-RES ovarian, 31.1 µM. In addition, in the assay on OVCAR-5 ovarian, the TGI stood at 34.6 µM.

On to `COC(=O)c1cc2c(cc1Cl)Sc1nnc(Nc3ccc(C)cc3)n1S2(=O)=O`, for which the TGI turned out to be 36.1 µM in the assay on CCRF-CEM leukemia; 22 µM in the assay on CAKI-1 renal; 21.1 µM with MDA-MB-435; 6.2 µM in the assay with SR leukemia; 10.3 µM in the assay on NCI-H522 lung; 25.7 µM with NCI-H460 lung. Besides, the total growth inhibition concentration (TGI) with OVCAR-4 ovarian came out at 10.7 µM; with SF-539 CNS, 2.92 µM; in the assay with NCI-H23 lung, 15.7 µM; in the assay with IGROV1 ovarian, 7.75 µM; with OVCAR-3 ovarian, 5.77 µM; in the assay with MDA-MB-231 breast, 27.2 µM. Moreover, the total growth inhibition concentration (TGI) worked out at 24.1 µM in the assay with 786-0 renal; 7.31 µM with DU-145 prostate; 4.12 µM in the assay with T-47D breast; 27.7 µM in the assay with TK-10 renal; 25.7 µM in the assay with NCI/ADR-RES ovarian; 39.8 µM in the assay with OVCAR-5 ovarian.

Consider `COC(=O)Nc1nc2ccc(S(=O)(=O)SC)cc2[nH]1`, for which the TGI is 61.4 µM with CCRF-CEM leukemia; over 100 µM in the assay with CAKI-1 renal; 12.2 µM in the assay with MDA-MB-435; 62.8 µM with SR leukemia; over 100 µM in the assay with NCI-H522 lung; over 100 µM with NCI-H460 lung. In addition, the TGI in the assay on OVCAR-4 ovarian is 84.5 µM; in the assay with SF-539 CNS, 39.3 µM; with IGROV1 ovarian, 15.3 µM; in the assay on OVCAR-3 ovarian, over 100 µM; in the assay with MDA-MB-231 breast it was 40.1 µM; with 786-0 renal, 16.9 µM. Further, the TGI in the assay with DU-145 prostate was found to be 27.1 µM; in the assay with T-47D breast, 30.4 µM; with SW-620 colon, 25.2 µM; in the assay on TK-10 renal, 22.1 µM; in the assay on NCI/ADR-RES ovarian it was 82.4 µM; in the assay with OVCAR-5 ovarian it was 45.1 µM.

As to `CCCc1c(O)nc(Nc2nc3ccccc3[nH]2)[nH]c1=O`, the TGI in the assay with CCRF-CEM leukemia, in the assay on CAKI-1 renal, in the assay with MDA-MB-435, with SR leukemia, with NCI-H522 lung and in the assay with NCI-H460 lung was over 100 µM throughout. Besides, the TGI in the assay with OVCAR-4 ovarian, in the assay with SF-539 CNS, with NCI-H23 lung, in the assay with IGROV1 ovarian, with MDA-MB-231 breast and with 786-0 renal was over 100 µM throughout. The TGI with DU-145 prostate, in the assay on T-47D breast, with SW-620 colon, in the assay on TK-10 renal, with NCI/ADR-RES ovarian and in the assay with OVCAR-5 ovarian was over 100 µM each time.

The term TGI denotes the concentration at which net growth stops. High values mean lower sensitivity of the cells, low ones greater sensitivity of the cells.
